From patent publication US20100298375A1, “MEDICAMENT COMPRISING A CARBOSTYRIL DERIVATIVE AND DONEPEZIL FOR TREATING ALZHEIMER'S DISEASE” (priority 2007, published 2010)
Where a name gives a salt, the structure may show the parent alone.

Test system: women suffering from Alzheimer's disease
Experiment: mini-mental state examination (MMSE) in patients with Alzheimer's disease
Type: in vivo
Protocol: To two women suffering from Alzheimer's disease (one was […] and the other was […]), donepezil hydrochloride (Aricept®) had been administered in a dose of 5 mg/day for 12 months and 9 months, respectively. […] At the beginning time of the experiment (0 month), the administration of cilostazol in a dose of 100 mg/day started as the combination with donepezil hydrochloride.

COc1cc2c(cc1OC)C(=O)C(CC1CCN(Cc3ccccc3)CC1)C2 (stereo not drawn) [donepezil hydrochloride]
MMSE Score (Patient 1, at start of cilostazol, donepezil hydrochloride 5 mg/day alone until then): 13
MMSE Score (Patient 1, −3 Ms, donepezil hydrochloride 5 mg/day alone): 16
MMSE Score (Patient 1, −6 Ms, donepezil hydrochloride 5 mg/day alone): 17
MMSE Score (Patient 1, −9 Ms, donepezil hydrochloride 5 mg/day alone): 17
MMSE Score (Patient 2, at start of cilostazol, donepezil hydrochloride 5 mg/day alone until then): 6
MMSE Score (Patient 2, −3 Ms, donepezil hydrochloride 5 mg/day alone): 10
MMSE Score (Patient 2, −6 Ms, donepezil hydrochloride 5 mg/day alone): 12
MMSE Score (Patient 2, −9 Ms, donepezil hydrochloride 5 mg/day alone): 13
MMSE Score (Patient 2, −12 Ms, donepezil hydrochloride 5 mg/day alone): 16
